Like-named read-outs stand apart in the source and are kept apart here.
Columns and labels:
[1] = system: MDA-MB231; test: Cell viability (MTT) assay, 24-h IC50, MDA-MB231; assay type: cell-based, human
[2] = system: HT29; test: Cell viability (MTT) assay, 24-h IC50, HT29; assay type: cell-based, human
[3] = system: MIA-PaCa-2; test: Cell viability (MTT) assay, 24-h IC50, MIA-PaCa-2; assay type: cell-based, human
[4] = system: MDA-MB 231 human breast cancer cells; test: Cell proliferation assay (BrdU incorporation) in MDA-MB231; assay type: cell-based; settings: MDA-MB231, each compound at its IC50 concentration
Description: Cell proliferation assay: To determine cell proliferation, we measured the incorporation of 5-bromo-2′-deoxyuridine (BrdU) into newly synthesized cellular DNA, following the manufacture's instructions (BD Biosciences, San Jose, Calif.).
(§1) As summarized in Table 2 below, in MDA-MB231 cells, all six compounds, each used at its IC50 concentration, a) inhibited cell proliferation between 6% and 50% compared to controls; b) induced both early and late apoptosis, as well as necrosis; and c) inhibited the G1 to S cell cycle phase transition. In this Table, the values for proliferation are the percentage of the corresponding control values. Those for apoptosis and necrosis refer to the percentage of cells in each category with respect to the entire cell population, and are to be compared to the control (vehicle only-treated) cells (uppermost row).

[5] = system: SW480; test: Cell viability (MTT) assay, 24-h IC50, SW480; assay type: cell-based, human
[6] = system: MCF-7; test: Cell viability (MTT) assay, 24-h IC50, MCF-7; assay type: cell-based, human
[7] = system: BxPC-3; test: Cell viability (MTT) assay, 24-h IC50, BxPC-3
Experimental: Cells were incubated at 37° C. in 5% CO2. Cells were seeded at 5.5×10^4 cells/cm^2, allowed to attach overnight, and the following morning cells were treated with each of the test compounds.
Cell viability assay: We used an assay based on the reduction of 3-(4,5-dimethylthiazol-2-yl)-2,5-diphenyltetrazolium bromide dye (MTT), which was determined according to the manufacture's protocol (Promega, Madison, Wis., USA).

[8] = system: MDA-MB 231 human breast cancer cells; test: Annexin V and propidium iodide staining in MDA-MB231; assay type: cell-based; settings: MDA-MB231, compound at its IC50, 24 h; for Necrosis (%): % of entire cell population (control 0.6); for Early apoptosis (%): % of entire cell population (control 1.4); for Late apoptosis (%): % of entire cell population (control 2.0)
Experimental: Annexin V and propidium iodide (PI) staining: Cells were seeded at a density of 1×10^5 cells/well and treated for 24 h with various concentrations of each compound or equivalent volumes of DMSO. Briefly, after incubation with the test compounds, cells were trypsinized and stained with Annexin V-FITC (Invitrogen) and PI (0.5 μg/ml). Following incubation at room temperature for 15 min in the dark, annexin V-FITC and PI fluorescence intensities were analyzed by FACScaliber (BD Bioscience). Annexin V (+)/PI (−) cells are in early apoptosis, annexin V (+)/PI (+) cells are in late apoptosis (secondary necrosis), and annexin V (−)/ PI (+) cells are necrotic cells.
as §1

[9] = system: spermidine/spermine N^1-acetyltransferase (SSAT); test: SSAT enzymatic activity in SW480 cells; assay type: cell-based, human; settings: SW480, 24 h; phospho-sulindac I 85 μM; P<0.05 versus control
Experimental: (§2) SW480 cells were incubated without or with phospho-sulindac I (P-S) for up to 24 h and SSAT activity was determined at each time point by determining the amount of labelled N1-acetylspermidine synthesized from [^14C]acetyl-CoA and unlabeled spermidine.
(§3) The effect of phospho-sulindac I on polyamines is mediated, at least in part, by activation of SSAT by phospho-sulindac I. It is known that conventional sulindac induces SSAT activity (Babbar et al., Cyclooxygenase-independent induction of apoptosis by sulindac sulfone is mediated by polyamines in colon cancer. J Biol Chem 2003; 278(48):47762-75.). Incubation of HT-29 and SW480 cells with 85 μM phospho-sulindac I for 24 h leads to a 3- and 4.4-fold increase of SSAT activity (P<0.05 versus control), respectively. On the other hand, incubation with sulindac led to a 1.5 and 2.5-fold increase of SSAT activity (P<0.05 versus control) in HT-29 and SW480 cells, respectively.

[10] = system: APC^Min/+ mice; settings: literature (Yang et al. 2003); cited from earlier work
[11] = assay type: in vivo; settings: 5 days oral gavage; phospho-sulindac I 317 mg/kg/d, sulindac 200 mg/kg/day; 8 mice/group
Experimental: Phospho-sulindac I lacked gastrointestinal toxicity in mice; gastrointestinal toxicity is the major side effect of sulindac as well as of the entire class of NSAIDs. We evaluated in mice the potential toxicity of phospho-sulindac I. Three groups, each consisting of 8 female C57BL/6J+/+mice 6 wks of age, were treated for 5 days by oral gavage with equimolar amounts of phospho-sulindac I (317 mg/kg/d) or conventional sulindac (200 mg/kg/day) or vehicle. Mice were weighed at time 0 and on days 3 and 5. Mice surviving to the end of the study were euthanized and necropsied.
The stomachs of sulindac-treated animals were larger than those of the other two groups and in some the liver appeared hyperemic.

[12] = system: spermidine/spermine N^1-acetyltransferase (SSAT); test: SSAT enzymatic activity in HT-29 cells; assay type: cell-based, human; settings: HT-29, 24 h; phospho-sulindac I 85 μM; P<0.05 versus control
Experimental: as §2, §3

[13] = MDA-MB231 breast cancer cells, 24 h, read-out: 24-h IC50
[14] = HT29 colon cancer cells, 24 h, read-out: 24-h IC50
[15] = MIA-PaCa-2 pancreatic cancer cells, 24 h, read-out: 24-h IC50
[16] = SW480 colon cancer cells, 24 h, read-out: 24-h IC50
[17] = MCF-7 breast cancer cells, 24 h, read-out: 24-h IC50
[18] = read-out: 24-h IC50, BxPC-3 pancreatic cancer cells, 24 h
[19] = Homo sapiens, MDA-MB-231, 24 h, read-out: 24-h IC50
[20] = Homo sapiens, HT-29, 24 h, read-out: 24-h IC50
[21] = Homo sapiens, MIA PaCa-2, 24 h, read-out: 24-h IC50
[22] = Homo sapiens, SW480, 24 h, read-out: 24-h IC50
[23] = Homo sapiens, MCF7, 24 h, read-out: 24-h IC50
[24] = Homo sapiens, BXPC-3, 24 h, read-out: 24-h IC50
[25] = Homo sapiens, BXPC-3, 24 h, read-out: IC50 (growth of human cancer cells)
[26] = Homo sapiens, MDA-MB-231, MDA-MB231 breast cancer cells, 24 h, read-out: 24-h IC50
[27] = Homo sapiens, HT-29, HT29 colon cancer cells, 24 h, read-out: 24-h IC50
[28] = Homo sapiens, MIA-PaCa-2 pancreatic cancer cells, 24 h, read-out: 24-h IC50
[29] = Homo sapiens, SW480 colon cancer cells, 24 h, read-out: 24-h IC50
[30] = Homo sapiens, MCF7, MCF-7 breast cancer cells, 24 h, read-out: 24-h IC50

| SMILES | Proliferation (% control) [4] | Necrosis (%) [8] | Early apoptosis (%) [8] | Late apoptosis (%) [8] | IC50 [7, 24] | IC50 [1, 26] | IC50 [2, 27] | IC50 [3, 28] | IC50 [5, 29] | IC50 [6, 30] | further results |
| --- | --- | --- | --- | --- | --- | --- | --- | --- | --- | --- | --- |
| CCOP(=O)(OCC)OCC(COC(=O)c1ccccc1OC(C)=O)OP(=O)(OCC)OCC (stereo not drawn) [Glycero-phospho-aspirin II] | 52 % control | 0.4% | 2.4% | 2.2% | – | – | – | – | – | – | IC50 [1, 13]: 360 µM; IC50 [2, 14]: 40 µM; IC50 [3, 15]: 242 µM; IC50 [5, 16]: 170 µM; IC50 [6, 17]: 248 µM; IC50 [7, 18]: 38 µM |
| CCOP(=O)(OCC)OCCCCOC(=O)CC1=C(C)/C(=C/c2ccc(SC)cc2)c2ccc(F)cc21 [Phospho-sulindac II] | 52 % control | 2.6% | 5.0% | 23.2% | 32 µM | – | – | – | – | – | IC50 [1, 19]: 18 µM; IC50 [2, 20]: 70 µM; IC50 [3, 21]: 92 µM; IC50 [5, 22]: 73 µM; IC50 [6, 23]: 38 µM |
| CCCC(CCC)C(=O)O [VPA, Valproic acid, reference compound] | – | – | – | – | – | – | – | – | – | – | IC50 ([1]; Homo sapiens, MDA-MB-231, Table 3, MDA-MB231, 24-h IC50, read-out: IC50 (growth of human cancer cells)): 4050 µM; IC50 ([2]; Homo sapiens, Table 3, HT-29, 24-h IC50, read-out: IC50 (growth of human cancer cells)): 3210 µM; IC50 ([3]; Homo sapiens, MIA PaCa-2, Table 3, MIA PaCa2, 24-h IC50, read-out: IC50 (growth of human cancer cells)): 3080 µM; IC50 ([5]; Homo sapiens, Table 3, SW480, 24-h IC50, read-out: IC50 (growth of human cancer cells)): 3640 µM; IC50 ([6]; Homo sapiens, MCF7, Table 3, MCF-7, 24-h IC50, read-out: IC50 (growth of human cancer cells)): 1780 µM; IC50 [7, 25]: 1680 µM |
| CCCC(CCC)C(=O)Oc1ccc(COP(=O)(OCC)OCC)cc1 [Phosoho-VPA] | – | – | – | – | – | – | – | – | – | – | IC50 ([1]; Homo sapiens, MDA-MB-231, 24 h, read-out: IC50 (growth of human cancer cells)): 30 µM; IC50 ([2]; Homo sapiens, HT-29, 24 h, read-out: IC50 (growth of human cancer cells)): 13 µM; IC50 ([3]; Homo sapiens, MIA PaCa-2, 24 h, read-out: IC50 (growth of human cancer cells)): 89 µM; IC50 ([5]; Homo sapiens, SW480, 24 h, read-out: IC50 (growth of human cancer cells)): 59 µM; IC50 ([6]; Homo sapiens, MCF7, 24 h, read-out: IC50 (growth of human cancer cells)): 51 µM; IC50 [7, 25]: 36 µM |
| CC1=C(CC(=O)O)c2cc(F)ccc2C1=Cc1ccc([S+](C)[O-])cc1 (stereo not drawn) [Sulindac, 2-[6-fluoro-2-methyl-3-[(4-methylsulfinylphenyl)methylidene]inden-1-yl]-acetic acid, reference compound] | – | – | – | – | 489 µM | 530 µM | 1170 µM | 1040 µM | 900 µM | 1130 µM | increase of SSAT activity [9]: 2.5 fold; effect on formation of tumors in the colon of Min mice [10]: stimulates the formation of tumors in the colon; mortality [11]: 75%; increase of SSAT activity [12]: 1.5 fold |
| CC(=O)Oc1ccccc1C(=O)O [Aspirin, acetylsalicylic acid, reference compound] | – | – | – | – | > 2000 µM | > 2000 µM | 4000 µM | > 2000 µM | > 2000 µM | > 2000 µM | – |
| CCOP1(=O)OCC(COC(=O)c2ccccc2OC(C)=O)O1 (stereo not drawn) [Glycero-phospho-aspirin I] | 94 % control | 0.3% | 4.8% | 3.2% | – | – | – | – | – | – | IC50 [1, 13]: 199 µM; IC50 [2, 14]: 54 µM; IC50 [3, 15]: 303 µM; IC50 [5, 16]: 169 µM; IC50 [6, 17]: 32 µM; IC50 [7, 18]: 63 µM |
| CCOP(=O)(OCC)OCCCCOC(=O)C(C)c1ccc(-c2ccccc2)c(F)c1 (stereo not drawn) [Phospho-Flurobiprofen] | 42 % control | 1.7% | 5.3% | 20.6% | 34 µM | – | – | – | – | – | IC50 [1, 19]: 17 µM; IC50 [2, 20]: 80 µM; IC50 [3, 21]: 135 µM; IC50 [5, 22]: 104 µM; IC50 [6, 23]: 65 µM |
| CC(C)Cc1ccc(C(C)C(=O)O)cc1 (stereo not drawn) [Ibuprofen, ibuprofen, reference compound] | – | – | – | – | 1060 µM | 748 µM | 1550 µM | 1280 µM | 1060 µM | 1230 µM | – |
| CC(C(=O)O)c1ccc(-c2ccccc2)c(F)c1 (stereo not drawn) [Flurobiprofen, flurbiprofen, reference compound] | – | – | – | – | 825 µM | 823 µM | 1670 µM | 1270 µM | 1220 µM | 1430 µM | – |
| CCOP(=O)(OCC)OCCCCOC(=O)C(C)c1ccc(CC(C)C)cc1 (stereo not drawn) [Phospho-Ibuprofen] | 50 % control | 5.6% | 7.4% | 43.2% | 53 µM | – | – | – | – | – | IC50 [1, 19]: 28 µM; IC50 [2, 20]: 82 µM; IC50 [3, 21]: 104 µM; IC50 [5, 22]: 75 µM; IC50 [6, 23]: 79 µM |

From patent publication US8236820B2, “Anti-inflammatory compounds and uses thereof” (priority 2007, dated 2012)
